# Like-named read-outs stand apart in the source and are kept apart here.
# Experiments:
# 22RV1 tumor = experiment: 22RV1 xenograft tumor growth in NCR-nude mice; assay type: in vivo, human; details: enzalutamide alone, 5 mg/kg po QD, 7 days
# From the text: Differences were considered statistically significant at p < 0.05.
# [1] = tested on: castration-resistant prostate cancer (CRPC); details: cited from earlier work
# glucocorticoid receptor [2] = target: T1, glucocorticoid receptor (Homo sapiens, UniProt P04150); experiment: AR (ARE) luciferase reporter assay, LNCaP-GR cells with DEX (GR-driven); assay type: cell-based
# T1 sequence (P04150 1-777): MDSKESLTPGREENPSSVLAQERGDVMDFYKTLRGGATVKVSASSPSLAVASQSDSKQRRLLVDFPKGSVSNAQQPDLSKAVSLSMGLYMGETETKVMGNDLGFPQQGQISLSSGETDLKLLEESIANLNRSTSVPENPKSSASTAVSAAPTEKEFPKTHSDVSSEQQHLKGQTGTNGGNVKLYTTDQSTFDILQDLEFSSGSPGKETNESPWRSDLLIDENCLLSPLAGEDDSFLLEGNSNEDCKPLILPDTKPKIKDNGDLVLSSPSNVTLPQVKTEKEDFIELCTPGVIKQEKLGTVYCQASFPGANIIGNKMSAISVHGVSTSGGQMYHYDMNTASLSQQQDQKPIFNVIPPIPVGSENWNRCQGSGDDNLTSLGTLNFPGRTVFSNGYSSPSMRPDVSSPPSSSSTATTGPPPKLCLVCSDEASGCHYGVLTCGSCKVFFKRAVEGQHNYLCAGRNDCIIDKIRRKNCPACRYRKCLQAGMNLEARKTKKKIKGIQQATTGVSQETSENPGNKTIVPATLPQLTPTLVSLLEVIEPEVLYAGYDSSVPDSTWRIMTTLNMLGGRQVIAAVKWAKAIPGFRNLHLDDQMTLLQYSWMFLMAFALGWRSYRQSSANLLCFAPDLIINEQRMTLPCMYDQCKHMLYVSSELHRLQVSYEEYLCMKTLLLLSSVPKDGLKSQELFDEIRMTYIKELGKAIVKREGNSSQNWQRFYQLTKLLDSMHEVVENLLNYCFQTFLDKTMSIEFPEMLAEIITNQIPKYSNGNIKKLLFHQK
# Experimental: (§1) The 22RV1, LNCaP and PC3 cell lines were stably transfected with a PGL4.2 luciferase reporter (Promega, Madison, USA). This reporter contains a sequence (3xgtaattgcagaacagcaagtgctagctctc) representing the wild type of Androgen Response Element (ARE) derived from the Prostate-Specific Antigen (PSA) promoter. […] This transfection was accomplished using Lipofectamine 3000 (Thermo Fisher Scientific, Waltham, MA). Stable clones were selected and maintained with puromycin (0.5 μg/mL). […] The pcDNA5 plasmid (Thermo Fisher Scientific, Waltham, MA), carrying the full open reading frame of GR, was transfected into LNCaP cells, and hygromycin (50 μg/mL) was employed to select and maintain stable clones.
# (§2) 10^4 reporter cells per well of 96-well plate were seeded in RPMI1640 media supplemented with 5% dialysis activated carbon treated FBS, 50 μg/mL Kanamycin in a 37°C, 5% CO2 incubator for 48 h. Cells were treated with herbal extracts at 30, 100, 300, and 600 μg/mL for 24 h in a 37°C-CO2 incubator. […] Dexamethasone (50 nM) was used to stimulate glucocorticoid receptor activity. Cells were lysed using luciferase lysis buffer after which luciferase buffer with luciferin was added to generate luminescence. Luminescence was recorded using a luminescence microplate reader. The IC50 is the concentration of treatment agent required to reduce the measured luminescence to half of its maximal value.
# (§3) GAPDH was used as protein loading control for normalization. […] Details of experimental procedures are given in Materials and methods.
# glucocorticoid receptor [3] = target: T1, glucocorticoid receptor; experiment: AR (ARE) luciferase reporter assay, PC3 cells (no ligand or DEX, GR-driven); assay type: cell-based; set-up: PC3 cells that only express GR and respond solely to DEX; endogenous in cells; host or cells: PC3; details: 24 h
# Experimental: as §1, §2, §3
# glucocorticoid receptor [4] = target: T1, glucocorticoid receptor; experiment: AR (ARE) luciferase reporter assay, 22RV1 cells with DEX (GR-driven); assay type: cell-based; set-up: AR luciferase reporter assay using 22RV1 cells that express GR; endogenous in cells; host or cells: 22RV1
# Experimental: as §1, §2, §3
# [5] = tested on: de novo protein synthesis; set-up: method as in Zalacain et al., 1982; Chan et al., 2004; Keysar et al., 2020; details: ref Zalacain et al., 1982; Chan et al., 2004; Keysar et al., 2020; cited from earlier work
# [6] = ref Rice et al., 2019; cited from earlier work
# From the text: Prostate cancer is the second leading cause of cancer death among men in the United States. According to the National Cancer Institute over 3 million men in the United States are living with prostate cancer, with 288,300 additional cases and 34,700 deaths expected in 2023. Androgen receptor (AR) signaling plays a key role in development of Benign prostatic hyperplasia (BPH) and prostate cancer ([Shiota et al., 2011]; [Gioeli and Paschal, 2012]; [Mills, 2014]; [Wong et al., 2014]; [Tan et al., 2015]). Therefore, androgen or Androgen R targeted therapy has become a major focus for the prevention ...
# AR = tested on: AR; set-up: method as in Rice et al., 2019; details: ref Rice et al., 2019; cited from earlier work
# From the text: Prostate cancer is the second leading cause of cancer death among men in the United States. […] Therefore, androgen or Androgen R targeted therapy has become a major focus for the prevention ...
# androgen receptor [7] = target: androgen receptor (Homo sapiens, UniProt P10275); assay type: cell-based
# Experimental: as §1
# as §2, with “value. […]” for “value.”
# androgen receptor [8] = target: T2, androgen receptor (Homo sapiens, UniProt P10275, T878A); experiment: AR (ARE) luciferase reporter assay, LNCaP cells (no ligand or DHT); assay type: cell-based
# T2 construct: LNCaP cells that only express AR and respond solely to DHT; endogenous in cells; host or cells: LNCaP; LNCaP-GR
# T2 sequence (P10275 1-920 T878A): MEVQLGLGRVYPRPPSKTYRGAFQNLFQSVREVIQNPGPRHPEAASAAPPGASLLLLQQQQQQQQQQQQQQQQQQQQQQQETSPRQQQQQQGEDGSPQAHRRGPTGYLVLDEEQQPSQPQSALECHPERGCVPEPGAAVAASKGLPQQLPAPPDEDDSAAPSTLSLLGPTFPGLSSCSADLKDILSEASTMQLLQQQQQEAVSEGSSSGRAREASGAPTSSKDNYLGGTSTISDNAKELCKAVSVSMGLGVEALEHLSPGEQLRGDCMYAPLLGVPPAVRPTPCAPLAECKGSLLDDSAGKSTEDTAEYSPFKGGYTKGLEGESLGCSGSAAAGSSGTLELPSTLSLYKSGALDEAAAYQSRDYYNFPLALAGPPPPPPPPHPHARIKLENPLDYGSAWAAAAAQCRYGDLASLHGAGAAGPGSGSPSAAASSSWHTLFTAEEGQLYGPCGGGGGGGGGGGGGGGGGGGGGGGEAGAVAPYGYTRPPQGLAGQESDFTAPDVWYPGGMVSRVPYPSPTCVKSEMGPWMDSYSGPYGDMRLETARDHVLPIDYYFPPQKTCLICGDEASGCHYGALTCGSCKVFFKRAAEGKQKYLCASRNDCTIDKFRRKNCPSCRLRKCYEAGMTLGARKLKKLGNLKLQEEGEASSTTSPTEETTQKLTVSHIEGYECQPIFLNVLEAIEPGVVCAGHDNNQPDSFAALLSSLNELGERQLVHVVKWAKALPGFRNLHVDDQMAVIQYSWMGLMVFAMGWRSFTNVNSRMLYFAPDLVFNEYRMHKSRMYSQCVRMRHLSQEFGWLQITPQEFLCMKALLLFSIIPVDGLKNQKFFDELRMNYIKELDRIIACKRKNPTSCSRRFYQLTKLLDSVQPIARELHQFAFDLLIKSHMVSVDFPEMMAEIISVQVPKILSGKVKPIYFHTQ
# Experimental: as §1, §2, §3
# androgen receptor [9] = target: T2, androgen receptor; experiment: cell-based
# Experimental: as §1, §2, §3
# [10] = of patients, ref Cattrini et al., 2022
# [11] = IC50 for ARE-luciferase reporter, ligand: -
# [12] = IC50 for ARE-luciferase reporter, ligand: DEX (50 nM)
# [13] = IC50 for ARE-luciferase reporter
# [14] = read-out: IC50 for ARE-luciferase reporter
# Chain of androgen receptor (Homo sapiens, UniProt P10275) (P10275 whole entry): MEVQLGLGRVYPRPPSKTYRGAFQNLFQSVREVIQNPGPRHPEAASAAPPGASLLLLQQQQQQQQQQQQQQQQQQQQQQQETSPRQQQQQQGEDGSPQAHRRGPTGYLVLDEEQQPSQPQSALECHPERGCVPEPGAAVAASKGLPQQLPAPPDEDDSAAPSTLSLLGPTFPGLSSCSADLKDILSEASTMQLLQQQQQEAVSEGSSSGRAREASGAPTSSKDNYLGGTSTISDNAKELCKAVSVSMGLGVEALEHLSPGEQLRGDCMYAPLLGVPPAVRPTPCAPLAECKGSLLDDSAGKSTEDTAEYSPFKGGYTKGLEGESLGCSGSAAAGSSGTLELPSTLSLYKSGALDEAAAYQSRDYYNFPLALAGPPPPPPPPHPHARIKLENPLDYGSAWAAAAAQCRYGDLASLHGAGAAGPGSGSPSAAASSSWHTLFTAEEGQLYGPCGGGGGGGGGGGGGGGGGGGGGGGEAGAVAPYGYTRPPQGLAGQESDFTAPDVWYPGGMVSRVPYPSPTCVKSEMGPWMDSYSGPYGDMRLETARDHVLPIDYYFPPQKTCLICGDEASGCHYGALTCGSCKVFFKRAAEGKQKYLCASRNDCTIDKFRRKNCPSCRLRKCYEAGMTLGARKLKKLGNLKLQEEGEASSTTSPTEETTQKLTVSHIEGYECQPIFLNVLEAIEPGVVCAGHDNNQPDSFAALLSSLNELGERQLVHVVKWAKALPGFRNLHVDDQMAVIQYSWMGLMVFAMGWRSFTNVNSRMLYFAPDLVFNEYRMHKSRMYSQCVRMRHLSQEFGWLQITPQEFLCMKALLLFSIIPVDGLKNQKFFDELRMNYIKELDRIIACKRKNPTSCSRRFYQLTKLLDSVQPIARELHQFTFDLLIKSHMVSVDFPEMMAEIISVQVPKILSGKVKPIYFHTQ
molecule,measurement,setting,value
CNC(=O)c1ccc(N2C(=S)N(c3ccc(C#N)c(C(F)(F)F)c3)C(=O)C2(C)C)cc1F [Enzalutamide],22RV1 tumor growth,22RV1 tumor,not found to substantially decrease the growth of 22RV1 tumors
same,grade 3 adverse events or higher,[1]; [10],approximately 25%
same,most common side effects,"[1]; ref Cattrini et al., 2022","fatigue, hypertension, diarrhea, and weight loss"
same,inhibition of DEX-induced luciferase activity,"glucocorticoid receptor [2]; LNCaP-GR, DEX 50 nM, 24 h",no effect
same,inhibition of DEX-induced luciferase activity,glucocorticoid receptor [3]; DEX 50 nM,no effect
same,inhibition of Dex-induced luciferase activity,"glucocorticoid receptor [4]; 22RV1, DEX 50 nM, 24 h",unable to inhibit GR-mediated luciferase activity
Bouvardin,inhibition of de novo protein synthesis,[5],can inhibit de novo protein synthesis
COc1ccc(C[C@H]2C(=O)N[C@@H](C)C(=O)N(C)[C@H]3Cc4ccc(cc4)Oc4cc(ccc4OC)C[C@@H](C(=O)N[C@H](C)C(=O)N[C@@H](C)C(=O)N2C)N(C)C3=O)cc1 [RA-VII],IC50,glucocorticoid receptor [2],5.6 ± 2.3 nM
same,IC50,glucocorticoid receptor [3]; [11],32 ± 9 nM
same,IC50,glucocorticoid receptor [3]; [12],3.6 ± 0.6 nM
same,IC50,glucocorticoid receptor [4],13.5 ± 5 nM
CC(O)c1cc(C(=O)N[C@@H](C)Cn2ccc(-c3ccc(C#N)c(Cl)c3)n2)[nH]n1 (stereo partly shown) [darolutamide],brain penetrance,[6],reductions in brain penetrance
same,grade 3 adverse events or higher,"[1]; human, in vivo",approximately 25%
same,most common side effects,"[1]; human, in vivo","fatigue, hypertension, diarrhea, and weight loss"
same,selectivity and potency against AR,AR,higher selectivity and potency against AR
COc1ccc(C[C@H]2C(=O)N[C@@H](C)C(=O)N(C)[C@H]3Cc4ccc(cc4)Oc4cc(ccc4O)C[C@@H](C(=O)N[C@H](C)C(=O)N[C@@H](CCC(=O)O)C(=O)N2C)N(C)C3=O)cc1 [RA-XI],comparative potency (anti-AR and anti-GR activity),androgen receptor [7],significantly reduce the anti-AR and anti-GR activity
same,inhibition of luciferase activity in any assay,androgen receptor [7],did not inhibit luciferase activity in any assay
same,IC50,androgen receptor [8]; [13],> 250 nM
same,IC50,androgen receptor [8]; [14],> 250 nM
same,IC50,glucocorticoid receptor [2],> 250 nM
same,IC50,glucocorticoid receptor [3]; [11],> 250 nM
same,IC50,glucocorticoid receptor [3]; [12],> 250 nM
same,IC50,glucocorticoid receptor [4],> 250 nM
same,IC50,androgen receptor [9]; [13],> 250 nM
same,IC50,androgen receptor [9]; [14],> 250 nM
CNC(=O)c1ccc(N2C(=S)N(c3cnc(C#N)c(C(F)(F)F)c3)C(=O)C23CCC3)cc1F [apalutamide],brain penetrance,[6],reductions in brain penetrance
same,grade 3 adverse events or higher,[1]; [10],approximately 25%
same,most common side effects,"[1]; ref Cattrini et al., 2022","fatigue, hypertension, diarrhea, and weight loss"
same,selectivity and potency against AR,AR,higher selectivity and potency against AR
"COc1ccc(C[C@H]2C(=O)N[C@@H](C)C(=O)N(C)[C@H]3Cc4ccc(cc4)Oc4cc(ccc4O)C[C@@H](C(=O)N[C@H](C)C(=O)N[C@@H](C)C(=O)N2C)N(C)C3=O)cc1 [RA-V, Deoxybouvardin]",IC50,"androgen receptor [8]; LNCaP, ligand: +DHT (25 nM), 24 h, read-out: IC50 for ARE-luciferase reporter",5.3 ± 1.4 nM
same,IC50,"androgen receptor [8]; LNCaP, ligand: -, 24 h, read-out: IC50 for ARE-luciferase reporter",> 100 nM
same,IC50,"glucocorticoid receptor [2]; LNCaP-GR, ligand: +DEX (50 nM), 24 h, read-out: IC50 for ARE-luciferase reporter",7.8 ± 2.2 nM
same,IC50,"glucocorticoid receptor [3]; ligand: -, read-out: IC50 for ARE-luciferase reporter",40 ± 19 nM
same,IC50,"glucocorticoid receptor [3]; ligand: DEX (50 nM), read-out: IC50 for ARE-luciferase reporter",5.7 ± 2.3 nM
same,IC50,"glucocorticoid receptor [4]; 22RV1, ligand: +DEX (50 nM), 24 h, read-out: IC50 for ARE-luciferase reporter",22 ± 5 nM
same,IC50,"androgen receptor [9]; LNCaP-GR, ligand: +DHT (25 nM), 24 h, read-out: IC50 for ARE-luciferase reporter",4.1 ± 1.3 nM
same,IC50,"androgen receptor [9]; LNCaP-GR, ligand: -, 24 h, read-out: IC50 for ARE-luciferase reporter",> 100 nM

# From PMC10582333 (Frontiers in Pharmacology, 2023)
